# Literature values, collected in patent publication US20170224670A1, “Drug Combination to Treat Melanoma” (Exelixis, Inc., priority 2014, published 2017).
# Tested on: BRAF mutation-associated melanomas
# Details: from initial use, patients taking the drug
compound,measurement,value
CCCS(=O)(=O)Nc1ccc(F)c(C(=O)c2c[nH]c3ncc(-c4ccc(Cl)cc4)cc23)c1F [vemurafenib],"Time to development of resistance, on average",≤ 7 months
